Laboratory results as given in PubChem BioAssay (NCI).
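Protocol summary: plate cells (96-well), add compound at 5 concentrations, incubate 48 h, interpolate endpoints linearly. TGI is the concentration that stops growth completely.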

Experiments:
Experiment in all cases: DTP human tumour cell line panel, 48 h
BT-549 breast = tested on: BT-549 breast
DU-145 prostate = tested on: DU-145 prostate
T-47D breast = tested on: T-47D breast
DLD-1 colon = tested on: DLD-1 colon
DMS 273 small cell lung = tested on: DMS 273 small cell lung
KM20L2 colon = tested on: KM20L2 colon
LXFL 529 NSCLC = tested on: LXFL 529 NSCLC
RXF-631 renal = tested on: RXF-631 renal
SNB-78 CNS = tested on: SNB-78 CNS
XF 498 CNS = tested on: XF 498 CNS
DMS 114 small cell lung = tested on: DMS 114 small cell lung
HOP-18 NSCLC = tested on: HOP-18 NSCLC
M19-MEL melanoma = tested on: M19-MEL melanoma

SMILES | TGI (BT-549 breast) | TGI (DU-145 prostate) | TGI (T-47D breast) | TGI (KM20L2 colon) | TGI (SNB-78 CNS) | further results
C=C(Cl)C(C)(Cl)CCC(Cl)C(C)C (centres undefined) | > 100 µM | > 100 µM |  |  |  | 
NC(=O)Cn1c(=O)oc2cc(C(=O)CN3CCOCC3)ccc21 |  | > 100 µM |  |  |  | 
CC1(C)CCCCCCCCCC2CC2CCC(C)(C)C1=O (centres undefined) | 87.4 µM | 40.9 µM | 47.1 µM |  |  | 
O=C(O)c1c2c(cc3c(=O)cc(-c4ccccc4)oc13)CCCC2 |  |  |  | > 100 µM | > 100 µM | TGI (DLD-1 colon): > 100 µM; TGI (DMS 273 small cell lung): > 100 µM; TGI (LXFL 529 NSCLC): > 100 µM; TGI (RXF-631 renal): > 100 µM; TGI (XF 498 CNS): > 100 µM
CCOC(=O)C(NC(=O)CC)(Nc1ccc(F)cc1F)C(F)(F)F (centres undefined) | > 100 µM |  | > 100 µM |  |  | 
COC(=O)/N=[N+](\[O-])C(c1ccccc1)c1ccccc1 | > 100 µM | > 100 µM | > 100 µM |  |  | 
O=[N+]([O-])C=C1c2ccccc2-c2ccccc21 |  |  |  | 34.5 µM | 31.1 µM | TGI (DLD-1 colon): 7.71 µM; TGI (LXFL 529 NSCLC): 28.2 µM
CC(=O)Nc1cc2nc3n(c2cc1C)CCC3OC(C)=O (centres undefined) | > 100 µM | > 100 µM | > 100 µM |  |  | 
CC(=O)NNc1nc(C)c(C(=O)/C=C/c2ccc(Cl)c(Cl)c2)s1 |  |  |  | > 100 µM | > 100 µM | TGI (DLD-1 colon): > 100 µM; TGI (DMS 114 small cell lung): > 100 µM; TGI (DMS 273 small cell lung): > 100 µM; TGI (HOP-18 NSCLC): > 100 µM; TGI (M19-MEL melanoma): > 100 µM; TGI (RXF-631 renal): > 100 µM
CC(C)C(Sc1nc(-c2ccccc2)c(-c2ccccc2)[nH]1)c1n[nH]c(=S)n1-c1ccccc1 (centres undefined) |  |  |  | 62.8 µM | > 100 µM | TGI (DLD-1 colon): > 100 µM; TGI (DMS 273 small cell lung): > 100 µM; TGI (LXFL 529 NSCLC): 54.4 µM; TGI (M19-MEL melanoma): 35.5 µM; TGI (XF 498 CNS): 80.3 µM
CCOC(=O)C1SC(=Nc2ccc(Cl)cc2Cl)N=C1C (centres undefined) |  |  |  | > 100 µM | > 100 µM | TGI (DLD-1 colon): > 100 µM; TGI (DMS 114 small cell lung): > 100 µM; TGI (DMS 273 small cell lung): > 100 µM; TGI (HOP-18 NSCLC): > 100 µM; TGI (LXFL 529 NSCLC): > 100 µM; TGI (M19-MEL melanoma): > 100 µM; TGI (XF 498 CNS): 94.1 µM
C[N+]12C=CC=C1C(N1CCCC1)c1scc(-c3ccc(F)cc3)c12 (centres undefined) | 88 µM | > 100 µM | 80.5 µM |  |  | 
CCN(CC)Cc1cc(Nc2ccnc3ccc4nn(C)nc4c23)ccc1O |  |  |  | 25.3 µM | 44.9 µM | TGI (LXFL 529 NSCLC): 27.6 µM; TGI (M19-MEL melanoma): 24.7 µM; TGI (RXF-631 renal): 31.3 µM; TGI (XF 498 CNS): 24.3 µM
Cc1cccc(C)c1N=Nc1ccc(O)c(CN(C)C)c1 | > 100 µM | > 100 µM | 79.3 µM |  |  | 
CN(C)CC1CCC/C(=C\c2ccccc2)C1=O (centres undefined) | 23.1 µM | 28.6 µM | 4.35 µM |  |  | 
CC(C)(C)n1c(=O)n2n(c1=O)C1c3cccc4cccc(c34)C2C2c3cccc4cccc(c34)C1n1c(=O)n(C(C)(C)C)c(=O)n12 | > 100 µM | > 100 µM | > 100 µM |  |  | 
Cc1ccccc1Nc1nc(NNC(=O)Cc2ccccc2)nc(NNC(=O)c2ccncc2)n1 | > 10 µM | > 10 µM | > 10 µM |  |  | 

SMILES | TGI (BT-549 breast) | TGI (DU-145 prostate) | TGI (T-47D breast) | TGI (KM20L2 colon) | TGI (SNB-78 CNS) | further results
C(#CC1(Nc2ccccc2)CCN(Cc2ccccc2)CC1)C1(Nc2ccccc2)CCN(Cc2ccccc2)CC1 | > 100 µM | > 56.2 µM | > 100 µM |  |  | 
O=S(=O)(CCC[C@H]1[C@@H](CCOCc2ccccc2)C2CCCN1O2)c1ccccc1 (some centres undefined) | > 100 µM |  | > 100 µM |  |  | 
COc1cc(CNc2c3ccccc3nc3ccccc23)cc(OC)c1OC | 16.2 µM | > 52.1 µM | 41.9 µM |  |  | 
COc1cc(C2c3cc4c(cc3OC(NCCO)C2C)OCO4)cc(OC)c1O (centres undefined) | > 100 µM |  | > 100 µM |  |  | 
CC(C)(C)[Si](C)(C)OCC1OC(n2ccc(=O)[nH]c2=O)C(O[Si](C)(C)C(C)(C)C)[C@]12O[C@@H]2CO (some centres undefined) | 19.4 µM | 38.1 µM |  |  |  | 
C#CCOCn1cc(C)c(=O)[nH]c1=O |  | > 100 µM | > 100 µM |  |  | 
C/C=C\C(CC(=O)OC)CC(=O)N(CCC1CN(S(=O)(=O)C(F)(F)F)c2ccccc21)Cc1ccc(OC)cc1OC (centres undefined) | > 100 µM |  | > 100 µM |  |  | 
NC(=O)CCC(NC(=O)c1c2ccccc2nc2ccccc12)C(=O)O (centres undefined) | > 100 µM | > 100 µM |  |  |  | 
O=C1C(c2ccccc2)=C(c2ccccc2)C(c2ccc(Sc3ccc(C4=C(c5ccccc5)C(=O)C(c5ccccc5)=C4c4ccccc4)cc3)cc2)=C1c1ccccc1 |  |  |  | > 100 µM | > 100 µM | TGI (DLD-1 colon): > 100 µM; TGI (DMS 114 small cell lung): > 100 µM; TGI (DMS 273 small cell lung): > 100 µM; TGI (M19-MEL melanoma): > 100 µM; TGI (RXF-631 renal): > 100 µM; TGI (XF 498 CNS): > 100 µM
NC(CCCCNCc1ccccc1)C(=O)O (centres undefined) |  |  |  | > 100 µM | > 100 µM | TGI (DLD-1 colon): > 100 µM; TGI (DMS 114 small cell lung): > 100 µM; TGI (DMS 273 small cell lung): > 100 µM; TGI (HOP-18 NSCLC): > 100 µM; TGI (LXFL 529 NSCLC): > 100 µM; TGI (M19-MEL melanoma): > 100 µM; TGI (RXF-631 renal): > 100 µM
c1ccc2c(CNCCCCCCCCNCc3cccc4ccccc34)cccc2c1 |  |  |  | 3.22 µM | 4.45 µM | TGI (DLD-1 colon): 4.07 µM; TGI (DMS 114 small cell lung): 3.48 µM; TGI (DMS 273 small cell lung): 3.68 µM; TGI (HOP-18 NSCLC): 18.5 µM; TGI (LXFL 529 NSCLC): 3.22 µM; TGI (M19-MEL melanoma): 3.12 µM; TGI (XF 498 CNS): 3.24 µM
Cc1cn(C2CCN(CC3COC(C)(C)O3)O2)c(=O)[nH]c1=O (centres undefined) | > 100 µM | > 100 µM | > 100 µM |  |  | 
Cc1cc(C)nc(NS(=O)(=O)c2ccc(NC(=O)NC(F)(F)F)cc2)n1 | > 100 µM |  | > 100 µM |  |  | 
O=C(CN=C(CN(c1ccccc1)c1ccccc1)Oc1ccc(Cl)cc1Cl)n1ccnc1 | > 100 µM | > 100 µM | > 100 µM |  |  | 
O=C(O)C12CCC(CC1=O)C2 (centres undefined) | > 100 µM |  | > 100 µM |  |  | 
COc1cc(CNc2cnc3ccc(N)cc3n2)cc(OC)c1OC |  |  |  | > 100 µM | > 100 µM | TGI (DMS 114 small cell lung): > 100 µM; TGI (DMS 273 small cell lung): > 100 µM; TGI (HOP-18 NSCLC): > 100 µM; TGI (LXFL 529 NSCLC): > 100 µM; TGI (M19-MEL melanoma): > 100 µM
COC(=O)C(=O)C(/C(=N/N)C(=O)Nc1ccccc1C(N)=O)c1nc2ccc([N+](=O)[O-])cc2[nH]c1=O (centres undefined) |  |  |  | > 100 µM | > 100 µM | TGI (DLD-1 colon): > 100 µM; TGI (DMS 114 small cell lung): > 100 µM; TGI (DMS 273 small cell lung): > 100 µM; TGI (LXFL 529 NSCLC): > 100 µM; TGI (M19-MEL melanoma): > 100 µM; TGI (XF 498 CNS): > 100 µM
